Results published in US10167270B2, “Substituted quinazoline compounds and uses thereof for modulating glucocerebrosidase activity” (Northwestern University, priority 2015, dated 2019).
Where two headings read alike, the source gives them in different places.

Target: Glucocerebrosidase (Homo sapiens (Human), UniProt P04062)
Assay: Glucocerebrosidase activity assay with blue substrate (4MU-Glc)
Format: biochemical
Settings: for Activity AC50 or IC50: direction not given
Method: The compounds in DMSO solution 0.5 μL/well were transferred to a black 96-well plate. The final titration was 24 nM to 50 μM, 12 concentrations, 2 times dilution. […] After 5 min of incubation at room temperature, the enzyme reaction was initiated by the addition of 33 μL/well blue substrate. Final concentrations of the blue substrate (4MU-Glc) was 1.5 mM. The blue substrate reaction was terminated by the addition of 33 μL/well stop solution (1 M NaOH and 1 M glycine mixture, pH 10) after 30 min of incubation at 37° C. The fluorescence was then measured in the Biotek Synergy H1 multi-mode plate reader with Ex=365 nm and Em=440 nm.
Additional compounds were prepared and tested according to the procedures provided in the examples above.
Additional substituted quinazoline compounds were prepared and tested according to the procedures provided in the examples above.

[1] = marked inhibitor, read-out: Activity AC50 or IC50 (inhibitor)
[2] = marked (inh), inhibitor, read-out: IC50 or AC50 (inh)
[3] = marked inhibitor, nM indicated, read-out: Activity AC50 or IC50 (inhibitor)
[4] = marked activator, read-out: Activity AC50 or IC50 (activator)
[5] = marked (act), activator, read-out: IC50 or AC50 (act)

Sequence of Glucocerebrosidase (P04062 40-536): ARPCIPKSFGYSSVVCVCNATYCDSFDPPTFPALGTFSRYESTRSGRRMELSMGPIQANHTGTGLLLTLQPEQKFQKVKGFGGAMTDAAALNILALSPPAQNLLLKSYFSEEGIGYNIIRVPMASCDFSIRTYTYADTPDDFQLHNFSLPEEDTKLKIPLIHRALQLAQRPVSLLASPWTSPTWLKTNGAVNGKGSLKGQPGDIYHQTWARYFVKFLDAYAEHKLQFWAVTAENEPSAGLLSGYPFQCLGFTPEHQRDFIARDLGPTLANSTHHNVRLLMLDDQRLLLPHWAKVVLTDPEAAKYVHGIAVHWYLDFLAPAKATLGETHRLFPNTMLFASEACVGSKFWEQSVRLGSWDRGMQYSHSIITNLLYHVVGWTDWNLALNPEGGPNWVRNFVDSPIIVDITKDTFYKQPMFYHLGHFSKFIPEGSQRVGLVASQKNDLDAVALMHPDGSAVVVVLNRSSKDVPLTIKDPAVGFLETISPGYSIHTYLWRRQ

SMILES: CN(CCOCc1ccccc1)c1nc(-c2cccnc2)nc2ccccc12 [compound 141]
- IC50 [1]: 11200 nM

SMILES: CN(CCOc1ccc(C#CCOCCOCCNc2nc(-c3cccnc3)nc3ccccc23)cc1)c1nc(-c2cccnc2)nc2ccccc12 [compound 110]
- Activity AC50 or IC50 (activator) (marked activator): Weak activator

SMILES: FC1(F)CCC(Nc2nc(-c3cccnc3)nc3ccccc23)CC1 [compound 65]
- IC50 [2]: 316 nM

SMILES: CN(CCOc1ccccc1)c1nc(-c2ccsc2)nc2ccccc12 [compound 126]
- Activity AC50 or IC50: Inactive

SMILES: CC(CNc1nc(-c2cccnc2)nc2ccccc12)Oc1ccccc1 (centres unmarked) [compound 92]
- IC50 [1]: 5010 nM

SMILES: O=C(CCCC[C@@H]1SC[C@@H]2NC(=O)N[C@@H]21)NCCOCCOCCOCCOCCC(=O)NCCCCCC(=O)Nc1ccc(-c2nc(NC3Cc4ccccc4C3)c3ccccc3n2)cc1 [compound 156]
- IC50 [3]: 1.95 nM

SMILES: [N-]=[N+]=Nc1c(F)c(F)c(CNc2nc(-c3cccnc3)nc3ccccc23)c(F)c1F [compound 37]
- IC50 or AC50 (act) (marked (act), activator): Weak (act)

SMILES: CN(CCOc1ccccc1)c1nc(-c2cccs2)nc2ccccc12 [compound 125]
- Activity AC50 or IC50: Inactive

SMILES: CC1(C)CCC(Nc2nc(-c3cccnc3)nc3ccccc23)CC1 [compound 85]
- IC50 [2]: 460 nM

SMILES: c1ccc(COCCNc2nc(-c3cccnc3)nc3ccccc23)cc1 [compound 140]
- IC50 [1]: 11200 nM

SMILES: CN(CCOc1ccccc1)c1nc(-c2cccc(F)c2)nc2ccccc12 [compound 132]
- Activity AC50 or IC50: Inactive

SMILES: c1ccc(CCCNc2nc(-c3cccnc3)nc3ccccc23)cc1 [compound 52]
- IC50 [2]: 1780 nM

SMILES: CC(C)(C)OC(=O)NCCC#Cc1ccc2c(c1)CC(Nc1nc(-c3cccnc3)nc3ccccc13)C2 (centres unmarked) [compound 96]
- IC50 [1]: 560 nM

SMILES: CN(CCOc1ccccc1)c1nc(-c2ccccn2)nc2ccccc12 [compound 143]
- Activity AC50 or IC50 (activator) (marked activator): Weak activator

SMILES: c1cncc(-c2nc(NC3CCCC3)c3ccccc3n2)c1 [compound 39]
- IC50 [2]: 790 nM

SMILES: c1cncc(-c2nc(NC3CCCCCCC3)c3ccccc3n2)c1 [compound 76]
- IC50 [2]: 28 nM

SMILES: CN1CCN(c2ccc(C(=O)N3CCN(c4nc(-c5cccnc5)nc5ccccc45)CC3)cc2)CC1 [compound 38]
- IC50 or AC50 (act) (marked (act), activator): Weak (act)

SMILES: Nc1nc(-c2cccnc2)nc2ccccc12 [compound 35]
- IC50 or AC50 (act) (marked (act), activator): Weak (act)

SMILES: c1cncc(-c2nc(NCCC3CCCCC3)c3ccccc3n2)c1 [compound 63]
- IC50 [2]: 282 nM

SMILES: c1cncc(-c2nc(NC3CCc4ccccc43)c3ccccc3n2)c1 (centres unmarked) [compound 67]
- IC50 [2]: 891 nM

SMILES: CN(c1nc(-c2cccnc2)nc2ccccc12)C1Cc2ccccc2C1 [compound 2]
- IC50 [2]: 2150 nM

SMILES: c1cncc(-c2nc(NC3CCCc4ccccc43)c3ccccc3n2)c1 (centres unmarked) [compound 68]
- IC50 [2]: 1120 nM

SMILES: Fc1cccc(CCNc2nc(-c3cccnc3)nc3ccccc23)c1 [compound 55]
- IC50 [2]: 141 nM

SMILES: CN(CCOc1ccccc1)c1nc(-c2ccc(F)cc2)nc2ccccc12 [compound 129]
- Activity AC50 or IC50: Inactive

SMILES: Nc1ccc(-c2nc(NC3Cc4ccccc4C3)c3ccccc3n2)cc1 [compound 142]
- IC50 [1]: 7.1 nM

SMILES: c1cncc(CCNc2nc(-c3cccnc3)nc3ccccc23)c1 [compound 70]
- IC50 [2]: 5010 nM

SMILES: c1cncc(-c2nc(NC3CC3)c3ccccc3n2)c1 [compound 42]
- IC50 [2]: 39800 nM

SMILES: CC1CCCCC1Nc1nc(-c2cccnc2)nc2ccccc12 (centres unmarked) [compound 48]
- IC50 [2]: 89 nM

SMILES: c1ccc(CNc2nc(-c3cccnc3)nc3ccccc23)cc1 [compound 51]
- IC50 [2]: 7080 nM

SMILES: CN(CCOc1ccccc1)c1nc(-c2ccc(N)cc2)nc2ccccc12 [compound 144]
- Activity AC50 or IC50 (inhibitor) (marked inhibitor): Weak inhibitor

SMILES: CC(C)(C)OC(=O)NCCCCCC(=O)Nc1ccc(-c2nc(NC3Cc4ccccc4C3)c3ccccc3n2)cc1 [compound 145]
- IC50 [3]: 5.6 nM

SMILES: c1ccc(Nc2nc(-c3cccnc3)nc3ccccc23)cc1 [compound 50]
- IC50 or AC50 (act) (marked (act), activator): Weak (act)

SMILES: CN(c1nc(-c2cccnc2)nc2ccccc12)[C@@H]1CCc2ccccc2C1 [compound 88]
- IC50 or AC50 (inh) (marked (inh), inhibitor): Weak (inh)

SMILES: CC(C)N1CCC(Nc2nc(-c3cccnc3)nc3ccccc23)CC1 [compound 41]
- IC50 [2]: 35500 nM

SMILES: c1cncc(-c2nc(NCC3CCCCC3)c3ccccc3n2)c1 [compound 57]
- IC50 [2]: 354 nM

SMILES: Brc1ccc2c(c1)CC(Nc1nc(-c3cccnc3)nc3ccccc13)C2 (centres unmarked) [compound 100]
- IC50 [1]: 178 nM

SMILES: c1cncc(-c2nc(N3CCc4c([nH]c5ccccc45)C3)c3ccccc3n2)c1 [compound 94]
- AC50 [4]: 2820 nM

SMILES: Cc1ccc(CCNc2nc(-c3cccnc3)nc3ccccc23)cc1 [compound 73]
- IC50 [2]: 1780 nM

SMILES: c1cncc(-c2nc(NCCCCCCCCCCNc3nc(-c4cccnc4)nc4ccccc34)c3ccccc3n2)c1 [compound 108]
- IC50 [1]: 141 nM

SMILES: c1ccc(OCCCNc2nc(-c3cccnc3)nc3ccccc23)cc1 [compound 91]
- IC50 [1]: 2820 nM

SMILES: Oc1ccc2c(c1)C[C@@H](Nc1nc(-c3cccnc3)nc3ccccc13)CC2 [compound 98]
- IC50 [1]: 79 nM

SMILES: CN(CCOc1ccc(C#CCCCCCCCCC(=O)ON2C(=O)CCC2=O)cc1)c1nc(-c2cccnc2)nc2ccccc12 [compound 153]
- Activity AC50 or IC50 (activator) (marked activator): activator

SMILES: c1cncc(-c2nc(NC3Cc4ccccc4C3)c3ccccc3n2)c1 [compound 1]
- IC50 [2]: 7 nM

SMILES: CN(c1nc(-c2cccnc2)nc2ccccc12)C1Cc2ccc(C#CCCCCCCCCC(=O)ON3C(=O)CCC3=O)cc2C1 (centres unmarked) [compound 105]
- Activity AC50 or IC50 (activator) (marked activator): Weak activator

SMILES: CN(CCCc1ccccc1)c1nc(-c2cccnc2)nc2ccccc12 [compound 119]
- AC50 [4]: 5010 nM

SMILES: CN1CCC(Nc2nc(-c3cccnc3)nc3ccccc23)CC1 [compound 45]
- IC50 or AC50 (inh) (marked (inh), inhibitor): Weak (inh)

SMILES: CN(c1nc(-c2cccnc2)nc2ccccc12)C1CCCCCCC1 [compound 123]
- Activity AC50 or IC50 (activator) (marked activator): Weak activator

SMILES: c1cncc(-c2nc(N3CCNCC3)c3ccccc3n2)c1 [compound 23]
- IC50 [2]: 35500 nM

SMILES: c1cncc(-c2nc(NC3CCC3)c3ccccc3n2)c1 [compound 43]
- IC50 [2]: 4470 nM

SMILES: CN(CCOc1ccccc1)c1nc(-c2ccccc2)nc2ccccc12 [compound 131]
- Activity AC50 or IC50: Inactive

SMILES: c1cncc(-c2nc(NC34CC5CC(CC(C5)C3)C4)c3ccccc3n2)c1 [compound 79]
- IC50 [2]: 1120 nM

SMILES: c1cncc(-c2nc(NCCc3c[nH]c4ccccc34)c3ccccc3n2)c1 [compound 72]
- AC50 [5]: 1280 nM

SMILES: CC1CCC(Nc2nc(-c3cccnc3)nc3ccccc23)CC1 (centres unmarked) [compound 77]
- IC50 [2]: 20 nM

SMILES: c1cncc(-c2nc(NC3CCCCCC3)c3ccccc3n2)c1 [compound 58]
- IC50 [2]: 63 nM

SMILES: NCCCCCC(=O)Nc1ccc(-c2nc(NC3Cc4ccccc4C3)c3ccccc3n2)cc1 [compound 147]
- IC50 [3]: 7.5 nM

SMILES: NCCC#Cc1ccc2c(c1)CC(Nc1nc(-c3cccnc3)nc3ccccc13)C2 (centres unmarked) [compound 99]
- IC50 [1]: 891 nM

SMILES: c1cncc(-c2nc(N3CCCOCC3)c3ccccc3n2)c1 [compound 116]
- Activity AC50 or IC50 (activator) (marked activator): Weak activator

SMILES: c1ccc(CCNc2nc(-c3cccnc3)nc3ccccc23)nc1 [compound 69]
- IC50 [2]: 1120 nM

SMILES: c1ccc(CN2CCC(Nc3nc(-c4cccnc4)nc4ccccc34)CC2)cc1 [compound 44]
- IC50 [2]: 31600 nM

SMILES: CC(C)(C)OC(=O)NCCOCCOCC(=O)Nc1ccc(-c2nc(NC3Cc4ccccc4C3)c3ccccc3n2)cc1 [compound 146]
- IC50 [3]: 39.8 nM

SMILES: c1cncc(-c2nc(NC3CC4CCC3C4)c3ccccc3n2)c1 (centres unmarked) [compound 78]
- IC50 [2]: 355 nM

SMILES: CN(Cc1nc2ccccc2[nH]1)c1nc(-c2cccnc2)nc2ccccc12 [compound 15]
- AC50 [5]: 8910 nM
